IC50 data for nine compounds are collected here from US11691970B2, “Pyrazolopyridinone compounds” (Janssen Pharmaceutica NV, priority 2017, dated 2023).

Where a name gives a salt, the structure may show the parent alone.

T1 sequence (P22607 397-806 limits assumed): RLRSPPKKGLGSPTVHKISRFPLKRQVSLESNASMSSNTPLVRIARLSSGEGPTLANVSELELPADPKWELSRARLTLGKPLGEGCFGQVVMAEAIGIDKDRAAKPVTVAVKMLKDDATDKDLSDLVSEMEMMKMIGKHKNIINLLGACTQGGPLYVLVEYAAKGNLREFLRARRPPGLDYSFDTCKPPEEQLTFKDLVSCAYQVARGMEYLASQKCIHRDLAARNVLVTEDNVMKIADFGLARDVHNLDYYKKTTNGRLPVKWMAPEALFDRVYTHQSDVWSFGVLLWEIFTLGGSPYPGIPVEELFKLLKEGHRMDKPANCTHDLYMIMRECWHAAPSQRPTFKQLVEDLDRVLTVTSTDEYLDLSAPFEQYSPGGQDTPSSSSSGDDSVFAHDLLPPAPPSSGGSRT

The assay addresses T1, human FGFR3 wild type enzyme (cytoplasmic domain) (Homo sapiens, UniProt P22607).
T1 construct: human FGFR3 wild type enzyme (cytoplasmic domain, from Carna Biosciences); purchased Carna Biosciences
The experiment in a line: FGFR3 wild type mobility shift assay (enzymatic assay). The class given is biochemical. The following applies: 75 μM ATP, 50 minutes at 30° C, Caliper EZ reader II. An excerpt: FGFR3 Wild Type Mobility Shift Assay (Enzymatic Assay)
A word on the IC50: it is the concentration that gives 50% inhibition. As to `C[C@H](Nc1c(-c2nc3c(F)cc(N4CCOCC4)c(F)c3[nH]2)c(=O)[nH]c2cn(C)nc12)c1ncccn1` (single isomer, unassigned) [Compound 17, (S*)-6-(4,7-difluoro-6-morpholino-1H-benzo[d]imidazol-2-yl)-2-methyl-7-((1-(pyrimidin-2-yl)ethyl)amino)-2H-pyrazolo[4,3-b]130pyridine-5(4H)-one], the IC50 came out at 46.5 nM.
With `Cc1cc2nc(-c3c(N[C@@H](C)c4cocn4)c4nn(C)cc4[nH]c3=O)[nH]c2cc1N1CCOCC1` [Compound 55, (S)-2-methyl-6-(5-methyl-6-morpholino-1H-benzo[d]imidazol-2-yl)-7-((1-(oxazol-4-yl)-ethyl)amino)-2H-pyrazolo[4,3-b]pyridin-5(4H)-one] the figure was 811 nM; with `CC[C@H](Nc1c(-c2nc3ccc(N4CCOCC4)cc3[nH]2)c(=O)[nH]c2cn(CC)nc12)c1ncccn1` (single isomer, unassigned) [Compound 3, (S*)-2-ethyl-6-(6-morpholino-1H-benzo[d]imidazol-2-yl)-7-((1-(pyrimidin-2-yl)propyl)-amino)-2H-pyrazolo[4,3-b]pyridin-5(47f)-one], 88.3 nM; with `CC(Nc1c(-c2nc3ccc(N4CCCCC4)c(F)c3[nH]2)c(=O)[nH]c2cn(C)nc12)c1ncccn1` (single isomer, unassigned) [Compound 16, (R*)-6-(7-fluoro-6-(piperidin-1-yl)-1H-benzo[d]imidazol-2-yl)-2-methyl-7-((1-(pyrimidin-2-yl)ethyl)amino)-2H-pyrazolo[4,3-b]pyridin-5(4H)-one], 38.1 nM.
The figure for `CC(Nc1c(-c2nc3ccc(OC4CCOCC4)cc3[nH]2)c(=O)[nH]c2cn(C)nc12)c1cocn1` (single isomer, unassigned) [Compound 37, (R*)-2-methyl-7-((1-(oxazol-4-yl)ethyl)amino)-6-(6-((tetrahydro-2H-pyran-4-yl)oxy)-1H-benzo[d]imidazol-2-yl)-2H-pyrazolo[4,3-b]pyridin-5(4H)-one] is 71.7 nM; for `COc1cc(N2CCOCC2)cc2[nH]c(-c3c(NC(C)c4ncccn4)c4nn(C)cc4[nH]c3=O)nc12` (single isomer, unassigned) [Compound 50, (R*)-6-(4-methoxy-6-morpholino-1H-benzo[d]imidazol-2-yl)-2-methyl-7-((1-(pyrimidin-2-yl)ethyl)amino)-2,4-dihydro-5H-pyrazolo[4,3-b]pyridin-5-one] it is 95.7 nM.
With `C[C@H](Nc1c(-c2nc3ccc(N4CCN(C)CC4)cc3[nH]2)c(=O)[nH]c2cn(C)nc12)c1ncccc1C(F)(F)F` (single isomer, unassigned) [Compound 31, (S*)-2-methyl-6-(6-(4-methylpiperazin-1-yl)-1H-benzo[d]imidazol-2-yl)-7-((1-(3-(trifluoromethyl)pyridin-2-yl)ethyl)amino)-2H-pyrazolo[4,3-b]pyridin-5(4H)-one 0.3 formate] the figure was 120 nM; with `CC(Nc1c(-c2nc3ccc(N4CCCCC4)cc3[nH]2)c(=O)[nH]c2cn(C)nc12)c1ncccn1` (single isomer, unassigned) [Compound 35, (R*)-2-methyl-6-(6-(piperidin-1-yl)-1H-benzo[d]imidazol-2-yl)-7-((1-(pyrimidin-2-yl)-ethyl)amino)-2H-pyrazolo[4,3-b]pyridin-5(4H)-one], 39.2 nM.
As for `CC(Nc1c(-c2nc3cc(C(F)(F)F)c(N4CCOCC4)cc3[nH]2)c(=O)[nH]c2cn(C)nc12)c1ncccn1` (single isomer, unassigned) [Compound 20, (S*)2-Methyl-6-(6-morpholino-5-(trifluoromethyl)-1H-benzo[d]imidazol-2-yl)-7-((1-(pyrimidin-2-yl)ethyl)amino)-2H-pyrazolo[4,3-b]pyridin-5(4H)-one], the concentration for half-maximal inhibition (IC50) stood at 1240 nM.
